Data as given in patent publication US9067894B1, “Compound, composition, and method of activating GIRK potassium channel and use of same for treating conditions of interest” (Vanderbilt University, priority 2013, dated 2015).
“Also recorded” adds a separate entry of the source.

Experiments:
Muscarinic M3 = biological target: T1, Muscarinic M3 (Homo sapiens, UniProt P20309); test: Radioligand displacement (Ricerca); type: binding
T1 construct: Ricerca (contract laboratory that ran the panel)

Dopamine D1 = biological target: T2, Dopamine D1 (Homo sapiens, UniProt P21728); test: Radioligand displacement (Ricerca); type: binding
T2 construct: Ricerca
T2 sequence (P21728 whole entry): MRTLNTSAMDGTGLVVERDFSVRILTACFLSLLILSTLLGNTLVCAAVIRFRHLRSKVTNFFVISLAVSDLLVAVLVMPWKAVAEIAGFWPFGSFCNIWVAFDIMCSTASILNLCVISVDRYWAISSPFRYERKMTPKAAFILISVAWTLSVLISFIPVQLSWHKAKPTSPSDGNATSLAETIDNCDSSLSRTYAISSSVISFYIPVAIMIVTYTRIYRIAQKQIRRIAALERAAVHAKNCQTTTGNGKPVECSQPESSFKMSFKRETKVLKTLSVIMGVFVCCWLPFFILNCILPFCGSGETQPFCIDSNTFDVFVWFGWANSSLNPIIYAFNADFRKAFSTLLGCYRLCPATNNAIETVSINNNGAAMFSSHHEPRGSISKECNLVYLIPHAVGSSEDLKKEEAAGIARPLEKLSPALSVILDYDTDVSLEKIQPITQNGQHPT

Estrogen ERα = biological target: T3, Estrogen ERα (Homo sapiens, UniProt P03372); test: Radioligand displacement (Ricerca); type: binding
T3 construct: Ricerca
T3 sequence (P03372 whole entry): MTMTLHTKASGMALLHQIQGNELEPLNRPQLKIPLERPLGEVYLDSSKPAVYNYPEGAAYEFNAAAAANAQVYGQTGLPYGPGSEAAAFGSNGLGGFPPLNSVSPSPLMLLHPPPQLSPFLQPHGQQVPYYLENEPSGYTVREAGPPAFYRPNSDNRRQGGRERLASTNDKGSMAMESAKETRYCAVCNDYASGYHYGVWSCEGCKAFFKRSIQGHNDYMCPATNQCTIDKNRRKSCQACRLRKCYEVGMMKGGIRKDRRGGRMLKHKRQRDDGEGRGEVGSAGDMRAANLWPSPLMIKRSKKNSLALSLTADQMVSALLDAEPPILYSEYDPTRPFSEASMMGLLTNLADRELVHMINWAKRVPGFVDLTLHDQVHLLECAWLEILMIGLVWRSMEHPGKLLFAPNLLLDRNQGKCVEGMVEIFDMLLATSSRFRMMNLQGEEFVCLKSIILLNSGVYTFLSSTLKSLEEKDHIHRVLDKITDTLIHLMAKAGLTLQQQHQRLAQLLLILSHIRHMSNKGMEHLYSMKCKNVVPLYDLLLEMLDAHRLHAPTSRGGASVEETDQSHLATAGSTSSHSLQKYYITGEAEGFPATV

Adenosine A2A = biological target: T4, Adenosine A2A (Homo sapiens, UniProt P29274); test: Radioligand displacement (Ricerca); type: binding
T4 construct: Ricerca (contract assay)
T4 sequence (P29274 whole entry): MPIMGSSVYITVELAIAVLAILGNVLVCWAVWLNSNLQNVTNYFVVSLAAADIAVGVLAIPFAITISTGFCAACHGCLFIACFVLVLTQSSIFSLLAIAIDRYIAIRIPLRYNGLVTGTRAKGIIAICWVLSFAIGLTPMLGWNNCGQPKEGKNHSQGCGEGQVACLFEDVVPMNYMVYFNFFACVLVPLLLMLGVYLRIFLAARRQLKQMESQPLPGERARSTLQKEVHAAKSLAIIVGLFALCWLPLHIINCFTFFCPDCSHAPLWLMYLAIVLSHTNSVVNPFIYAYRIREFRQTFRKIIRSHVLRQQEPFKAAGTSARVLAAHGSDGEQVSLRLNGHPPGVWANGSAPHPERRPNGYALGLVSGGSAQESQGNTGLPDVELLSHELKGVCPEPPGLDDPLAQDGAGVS

[1] = biological target: T5, Glutamate (NMDA, glycine) (Rattus norvegicus, UniProt P35439); test: Radioligand displacement (Ricerca); type: binding
T5 construct: Ricerca

[2] = Plasma protein binding, equilibrium dialysis; type: in vitro ADME, mouse; settings: murine plasma
Description: Plasma Protein Binding. […] Briefly plasma (220 μL) was added to the 96-well plate containing test article (5 μL) and mixed thoroughly. Subsequently, 200 μl of the plasma-test article mixture was transferred to the cis chamber (red) of the RED plate, with an accompanying 350 μL of phosphate buffer (25 mM, pH 7.4) in the trans chamber. The RED plate was sealed and incubated 4 h at 37° C. with shaking. At completion, 50 μL aliquots from each chamber were diluted 1:1 (50 μL) with either plasma (cis) or buffer (trans) and transferred to a new 96-well plate, at which time ice-cold acetonitrile (2 volumes) was added to extract the matrices. The plate was centrifuged (3000 rcf, 10 min) and supernatant solutions transferred to a new 96-well plate. The sealed plate was stored at −20° C. until LC/MS/MS analysis.
Liquid Chromatography/Mass Spectrometry Analysis. In vitro experiments. VU0456810 was analyzed on a Thermo Electron TSQ Quantum Ultra triple quad mass spectrometer (San Jose, Calif.) via electrospray ionization (ESI) with two Themo Electron Accella pumps (San Jose, Calif.), and a Leap Technologies CTC PAL autosampler (Carrboro, N.C.). Analytes were separated by gradient elution on a dual column system with two Thermo Hypersil Gold (2.1×30 mm, 1.9 μm) columns (San Jose, Calif.) at 40° C. HPLC mobile phase A was 0.1% formic acid in water and mobile phase B was 0.1% formic acid in acetonitrile. […]

Adrenergic α1D = biological target: T6, Adrenergic α1D (Homo sapiens, UniProt P25100); test: Radioligand displacement (Ricerca); type: binding
T6 construct: Ricerca (contract assay)
T6 sequence (P25100 whole entry): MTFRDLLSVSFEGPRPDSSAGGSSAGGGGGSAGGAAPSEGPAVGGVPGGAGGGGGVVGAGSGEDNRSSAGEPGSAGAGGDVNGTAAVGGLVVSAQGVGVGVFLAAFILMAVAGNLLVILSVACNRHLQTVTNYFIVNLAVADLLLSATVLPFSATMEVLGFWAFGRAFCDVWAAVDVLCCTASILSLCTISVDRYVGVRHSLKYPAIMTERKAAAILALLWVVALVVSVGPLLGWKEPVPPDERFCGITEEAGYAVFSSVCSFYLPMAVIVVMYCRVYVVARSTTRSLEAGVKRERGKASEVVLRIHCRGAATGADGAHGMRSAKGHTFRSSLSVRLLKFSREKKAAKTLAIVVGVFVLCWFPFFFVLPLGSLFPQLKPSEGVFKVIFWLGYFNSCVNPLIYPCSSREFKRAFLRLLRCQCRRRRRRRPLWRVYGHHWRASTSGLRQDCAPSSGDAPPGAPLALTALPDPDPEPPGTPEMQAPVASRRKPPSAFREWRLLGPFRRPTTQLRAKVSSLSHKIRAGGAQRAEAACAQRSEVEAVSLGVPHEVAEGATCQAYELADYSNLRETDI

Glutamate (kainate) = test: Radioligand displacement (Ricerca); type: binding, rat; settings: 10 μM
[3] = Maximal electroshock (MES) model of epilepsy; type: in vivo, mouse; settings: mice, i.p.; VU0456810 60 mg/kg, sodium valproate 150 mg/kg; vs vehicle
Description: MES stimulation was applied, 30 minutes after injection, through transauricular (ear-clip) electrodes from an electroshock apparatus, HSE Shock Stimulator Type 221, (Harvard Apparatus, Holliston, Mass.) using the following parameters: 100-mA fixed current, a 50-60-Hz pulse frequency, a 0.6-ms pulse width and a 0.3-s stimulus duration. Animals were restrained by hand when applying the electrodes and released at the moment of stimulation to permit observation of the seizure throughout its entire course. Upon completion of the electrical stimulus, the amount of time until death was recorded. […] In this modified MES test, the electrical stimulus that was applied was sufficient to induce seizures and death from maximal seizure in 100% of the control mice.
In all cases, experiments were conducted in a blind manner with respect to the experimenters. Data were evaluated in Excel using one-tailed, unpaired Student's t-test, assuming populations with unequal variance.

T1 sequence (P20309 whole entry): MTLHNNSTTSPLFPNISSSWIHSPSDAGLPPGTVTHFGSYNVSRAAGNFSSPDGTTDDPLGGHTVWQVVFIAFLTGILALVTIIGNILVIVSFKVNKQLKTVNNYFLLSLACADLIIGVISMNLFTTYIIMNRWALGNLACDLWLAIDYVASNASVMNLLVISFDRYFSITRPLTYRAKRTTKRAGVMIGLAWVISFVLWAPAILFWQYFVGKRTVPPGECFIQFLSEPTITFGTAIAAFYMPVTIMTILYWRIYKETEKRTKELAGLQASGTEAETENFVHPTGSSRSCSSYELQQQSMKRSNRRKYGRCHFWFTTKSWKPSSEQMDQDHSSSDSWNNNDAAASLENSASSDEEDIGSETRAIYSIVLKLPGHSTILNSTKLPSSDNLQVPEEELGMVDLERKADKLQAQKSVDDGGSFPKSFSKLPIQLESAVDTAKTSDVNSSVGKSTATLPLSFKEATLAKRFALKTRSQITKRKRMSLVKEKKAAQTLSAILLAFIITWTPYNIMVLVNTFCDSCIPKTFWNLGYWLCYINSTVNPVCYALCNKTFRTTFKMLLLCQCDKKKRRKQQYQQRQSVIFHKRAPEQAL

SMILES: Cc1cc(NC(=O)Nc2ccc(F)c(F)c2)n(-c2ccccc2)n1 [VU0456810, 1-(3,4-difluorophenyl)-3-(3-methyl-1-phenyl-1H-pyrazol-5-yl)urea]
- inhibition at 10 µM (Muscarinic M3): 13%
- inhibition at 10 µM (Dopamine D1): -5%
- inhibition at 10 µM (Estrogen ERα): 1%
- inhibition at 10 µM (Adenosine A2A): 12%
- inhibition at 10 µM [1]: -25%
- Plasma Protein Binding [2]: 3 % fu
- inhibition at 10 µM (Adrenergic α1D): -3%
- % Inhibition (Glutamate (kainate)): 1%
- latency of seizure onset [3]: robust increase; also recorded: highly significant delays in seizure onset
